{
  "source": "patent EP0627009B1",
  "about": "“MACROCYCLIC LACTONES AND A PRODUCTIVE STRAIN THEREOF” (PFIZER INC., priority 1992, dated 1993)",
  "key": {"[1]": {"test_system": "Candida albicans", "test": "anti-Candida albicans activity, agar plate dilution method with paper disk, inhibition zone", "format": "cell-based", "details": "Concentration 40 mg/disk; paper disk 8 mm; agar medium for neomycin assay", "excerpt": "The paper disk (8 mm, Advantic) and agar medium for neomycin assay (Difco) were used in the tests. As the novel macrocyclic lactones inhibit the growth of Candida albicans, they have an antifungal activity."}, "[2]": {"test_system": "human mixed lymphocyte reaction (MLR)", "test": "human mixed lymphocyte reaction (MLR) activity", "format": "cell-based", "details": "read-out: MLR activity(IC50, mg/ml)", "experimental": "The measurement of the human MLR activity of the macrocyclic lactones of this invention carried out by standard procedures which are described in the literature (D. P. Dubey et al., in Manual of Clinical Laboratory Immunology, 3rd Ed., pp847-858, 1986). The cytotoxicities of the macrocyclic lactones were measured by the standard procedure (T. Mosmann, J., J. Immunol. Methods, 65, 55-63, 1983). The concentration of their cytotoxicities is several ten times higher than that of their MLR activities."}},
  "data": [
    {"compound": "CO[C@H]1C[C@@H]2CC[C@@H](C)[C@@](O)(O2)C(=O)C(=O)N2CCCC[C@H]2C(=O)O[C@H]([C@H](C)C[C@@H]2CC[C@@H](O)[C@H](OC)C2)CC(=O)[C@H](C)/C=C(\\C)[C@@H](O)[C@@H](OC)C(=O)[C@H](C)C[C@H](C)/C=C/C=C/C=C/1C", "note": "[Rapamycin, rapamycin]", "values": [
      {"measurement": "The diameter of inhibition zone (mm)", "setting": "[1]", "result": 25, "unit": "mm"},
      {"measurement": "IC50", "setting": "[2]", "result": 0.01, "unit": "µg/mL"}
    ]}
  ]
}
